Experiments:
[1] = Chemical stability in 1% NaOH in MeOH (HPLC); format: physicochemical; settings: for stability in words: until 3 days (72 hours)
Experimental: The relative chemical stability of glabridin of Preparation Example 1, Example 3 (Compound 4), Example 4 (Compound 5) and Example 14 (Compound 15) were compared with each other. That is, 50 mg of each of glabridin, Compound 4, Compound 5, and Compound 15 was exactly weighed, dissolved in 50 ml of 1% HCl in MeOH and 10 ml of 1% NaOH in MeOH, and the concentrations of the compounds were examined by HPLC at each time level of 0, 8 hrs, 12 hrs, 24 hrs, 48 hrs, and 72 hrs. At this time, the concentrations of the compounds remaining in 1% HCl in MeOH and 1% NaOH in MeOH were determined using an internal standard (Compound 14 of Example 13). That is, 10 mg of Compound 14 was exactly weighed and dissolved in 100 ml of acetonitrile, 9 ml of this solution was mixed with 1 ml of the sample aliquoted at each time level, the mixture was analyzed by HPLC, and the concentrations of the compounds in the internal standard and in the above samples were determined by comparing the initial values.
The concentrations of the compounds remaining in 1% HCl in MeOH and 1% NaOH in MeOH at each time level are in the following Table 8 and FIG. 7 and the following Table 9 and FIG. 8, respectively.
The numerical values exceeding 100% in the following Tables 8 and 9 show those measured at a concentration is slightly higher than the initial measurement value, and this is due to the fact that an average value of the measured values was simply shown without considering a statistical error generated during the measurement. Since the measured value of about 95% or more is deemed to have practically no change in concentration, it may be seen that the compounds of the present invention are excellent in chemical stability.

db/db mice = test: Anti-diabetic effects for db/db mice (glycosylated hemoglobin); format: in vivo, C57BLKS/J-db/db mice
Experimental: 5-week-old male C57BLKS/J-db/db mice (Central Lab. Animal Inc.) were purchased and acclimatized for 2 weeks, and then used in this experiment. Samples were exactly taken from the compounds prepared in Examples 4 and 15 of the present invention (Compounds 5 and 16) according to the administration dose and put into Falcon tubes, a 0.5% methyl cellulose aqueous solution stored refrigerated was placed at room temperature to allow the excipients to be warmed at room temperature, 16 ml of each of the excipients was added to a 50 ml Falcon tube, and a vortex mixer was used to primarily mix the ingredients in a soft manner, and then a suspension was obtained and homogenized by treating the sample for 3 minutes using a homogenizer (30,000 rpm, CPT-1600E, Kinemtica, Switzerland), and then ultrasonically treated for 30 minutes. The sample thus prepared was administered through oral gavage using a disposable plastic syringe equipped with a sonde once daily for 42 days (6 weeks).
The glycosylated hemoglobin (HbA1c) was measured while the db/db mice were bred. The gyclosylated hemoglobin was measured at 2 days prior to group separation, 4 weeks after administration, and 6 weeks after administration, and was measured by fasting the mice for 4 hours on the measurement date, collecting blood from the caudal vein before each material was administered, and using a device for measuring glycosylated hemoglobin (SD A1cCare, SD Biosensor, Inc., Korea).

DIO mice = test: Organ weights and blood biochemistry of DIO mice after 28 days of administration; format: in vivo, C57BL/6 mice; settings: 150 mg/kg
Experimental: Five-week-old female C57BL/6 mice (Narabio Co., Ltd.) were purchased and fed with only high-fat diet for at least 10 weeks to produce diet induced obesity ([…]) mice. Samples were exactly taken from Preparation Example 1 (glabridin) and the compounds of Examples of the present invention (Compounds 1 to 5, 7, 9, 11, 14 to 16, 21, and 23) according to the administration dose and put into Falcon tubes, 3 ml of a 0.5% methyl cellulose aqueous solution was added thereto and a vortex mixer was used to primarily mix the ingredients in a soft manner, and then a homogenizer (30,000 rpm, Ultra-Turrax® T10 Basic, IKA) was used to treat the sample for 3 minutes while 1.5 ml of a 0.5% methyl cellulose aqueous solution was added thereto. The sample thus prepared was administered through oral gavage using a disposable plastic syringe once daily for 28 days (4 weeks). The body weight was measured twice a week while the DIO mice were bred in this manner. Based on the data thus calculated, the anti-obesity effect (%) was calculated according to the equation defined as follows. Anti-Obesity Effect={(Body weight of control group)−(Body weight of experimental group)}/(Body weight of control group)×100
After the experiment was performed for 28 days (4 weeks) as described above, blood was simultaneously taken while the experimental animal was finally sacrificed, and each of the organs (liver, heart, kidney, pancreas, fat tissues and the like) was removed to measure the weight and observe peculiar matters.
In Table 3, { }, ( ) and the like were used in order to differentiate experiments which had been performed at different periods. Experiments without the parenthesis were those simultaneously performed under the same conditions.

RAW264.7 macrophages = test: RAW264.7 macrophage NO assay (LPS-induced NO production, Griess reagent); format: cell-based; settings: for IC50: Mus musculus, RAW264.7, NO production, LPS 1 μg/ml, 24 hours; for effect of suppressing the production of NO: RAW264.7 macrophages, in words
Procedure, shortened: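 MTT (0.5 mg/ml, 4 h) viability read at 540 nm set non-cytotoxic compound concentrations for the NO test. NO suppression, read by absorbance at 540 nm, was the difference in NO between control and treated groups; values are means of three repeats.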

CCCc1ccc(C2COc3c(ccc4c3CCC(C)(C)O4)C2)c(O)c1 (stereo not drawn) [Compound 5, 3-(2-hydroxy-4-propylphenyl)-8,8-dimethyl-2,3,4,8,9,10-hexahydropyrano [2,3-f] chromene]
concentration of compound remaining [1]; 0: 100%
concentration of compound remaining ([1]; 8 h): 101%
concentration of compound remaining ([1]; 24 h): 102%
concentration of compound remaining ([1]; 48 h): 100%
concentration of compound remaining ([1]; 72 h): 102%
stability in words [1]: very stable
HbA1c (%) 4 weeks (db/db mice; 4 weeks after administration, 300 mg/kg oral once daily): 5.3%
HbA1c (%) 6 weeks (db/db mice; 6 weeks after administration, 300 mg/kg oral once daily): 5.7%
HbA1c (%) Before administration (db/db mice; before administration, 300 mg/kg group): 4.7%
ALT (U/L) (DIO mice; ( ) experiment): (50) U/L
AST (U/L) (DIO mice; ( ) experiment): (131) U/L
BMI (DIO mice; ( ) experiment): (3.0)
FFA (μEq/L) (DIO mice; ( ) experiment): (2310) μEq/L
Fat (g), weight of fat removed around the epididymis and the kidney (DIO mice; ( ) experiment): (1.04) g
LDL (mg/dL) (DIO mice; ( ) experiment): (12) mg/dL
Liver (g), weight of liver (DIO mice; ( ) experiment): (1.15) g
IC50 (RAW264.7 macrophages): 5.2 µM
effect of suppressing the production of NO (RAW264.7 macrophages): excellent

CCOc1ccc(C2COc3c(ccc4c3CCC(C)(C)O4)C2)c(O)c1 (stereo not drawn) [Compound 15, 3-(2-hydroxy-4-ethoxyphenyl)-8,8-dimethyl-2,3,4,8,9,10-hexahydropyrano [2,3-f] chromene]
concentration of compound remaining [1]; 0: 100%
concentration of compound remaining ([1]; 8 h): 100%
concentration of compound remaining ([1]; 24 h): 100%
concentration of compound remaining ([1]; 48 h): 98%
concentration of compound remaining ([1]; 72 h): 100%
stability in words [1]: very stable
ALT (U/L) (DIO mice; experiment without parenthesis): 52 U/L
AST (U/L) (DIO mice; experiment without parenthesis): 143 U/L
BMI (DIO mice; experiment without parenthesis): 3.6
FFA (μEq/L) (DIO mice; experiment without parenthesis): 1760 μEq/L
Fat (g), weight of fat removed around the epididymis and the kidney (DIO mice; experiment without parenthesis): 2.02 g
LDL (DIO mice; experiment without parenthesis): 10 mg/dL
Liver (g), weight of liver (DIO mice; experiment without parenthesis): 1.28 g
IC50 (RAW264.7 macrophages): 6.8 µM
effect of suppressing the production of NO (RAW264.7 macrophages): excellent

— patent publication US9783551B2, “Pyranochromenyl phenol derivative, and pharmaceutical composition for treating metabolic syndrome or inflammatory disease” (GLACEUM, INC., priority 2013, dated 2017)
